From patent publication US9314472B2, “Treatment and prevention of mastitis” (BRIGHAM YOUNG UNIVERSITY, priority 2012, dated 2016)
Counter-ions that a name gives are not always drawn.

Experiments:
Escherichia coli = test: Dose characterization study, CSA-44/propylene glycol formulation, intramammary treatment of clinical mastitis; assay type: in vivo, lactating dairy cows; conditions: 60 mg CSA-44 per quarter, infused eight to ten times at 12-hour interval; cured = no clinical signs 10 days post-treatment, milk visibly normal, SCC < 350,000 cells
Procedure: (§1) A first dose characterization study was conducted using CSA-44 hydrochloride with and without propylene glycol based in the formulation. This study enabled the selection of a dose to be used in a dose confirmation (field) study, which was conducted using two propylene glycol formulations and 60 mg of CSA-44 hydrochloride per 10 ml syringe.
(§2) The objective of this study was to evaluate the effectiveness of intramammary administered CSA-44, with and without propylene glycol as part of the formulation, for the treatment of clinical mastitis in lactating dairy cows.
(§3) A total of 42 cow quarters from Blue Star Dairy (BSD) were enrolled. Cows in their second or greater lactation, with an elevated somatic cell count (SCC) and either a positive milk culture for a mastitis pathogen or signs of clinical mastitis were assigned to one of two treatment groups: 1) ceftiofur hydrochloride administered 2-7 times, per label directions; and 2) 60 mg of CSA-44 per quarter, cows were infused eight to ten times at a 12-hour interval. A quarter was considered cured if there were no clinical signs of mastitis 10 days post-treatment, milk was visibly normal, and somatic cell count (SCC) was less than 350,000 cells. Using these criteria, cure rates for Group CSA treated cows were 87% for Staph. spp. (CNS and Staph. aureus), 90% for Escherichia coli, and 78% for Strep spp. (Streptococcus dysgalactiae, Strep. uberis, and Streptococcus sp).

[1] = system: Staph. spp. (CNS and Staph. aureus); test: as above; assay type: in vivo, lactating dairy cows; conditions: 60 mg CSA-44 per quarter, infused eight to ten times at 12-hour interval; cured = no clinical signs 10 days post-treatment, milk visibly normal, SCC < 350,000 cells
Procedure: as §1, §2, §3

[2] = system: Strep spp. (Streptococcus dysgalactiae, Strep. uberis, and Streptococcus sp); test: as above; assay type: in vivo, lactating dairy cows; conditions: 60 mg CSA-44 per quarter, infused eight to ten times at 12-hour interval; cured = no clinical signs 10 days post-treatment, milk visibly normal, SCC < 350,000 cells
Procedure: as §1, §2, §3

[3] = system: combined gram positive and gram negative bacteria; test: CSA-44/saline formulation study, intramammary treatment of clinical mastitis, all cases; assay type: in vivo, lactating dairy cattle; conditions: for cure rate for all mastitis cases: CSA-44 120 mg three times or cephapirin sodium 200 mg two times, intramammary, 24-hour interval, cured = no clinical signs, visibly normal milk, negative milk culture 11 days post-treatment; for % Cure / Cure (number) / Not Cure (number): combined gram positive and gram negative, CSA-44 120 mg x3 or cephapirin sodium 200 mg x2 intramammary, 11 days post-treatment
Procedure: (§4) A second dose characterization study was conducted using a non-final (saline) formulation of CSA-44 hydrochloride. The study enabled the selection of a dose to be used in the dose confirmation (field) study, which was conducted using the saline formulation of CSA-44 hydrochloride.
(§5) The objective of this study was to evaluate the effectiveness of intramammary administered CSA-44, as a saline based formulation, for the treatment of clinical mastitis in lactating dairy cows.
(§6) The objective was to evaluate the effectiveness of intramammary infusion of CSA-44 hydrochloride sterile suspension three times at a 24-hour interval at 120.0 mg dosage in the affected quarter in comparison to a negative control or 200 mg of cephapirin sodium activity in a stable peanut oil gel for the treatment of clinical mastitis in lactating dairy cattle.
(§7) A total of 151 cows from 2 herds were enrolled. Cows were enrolled in the study when they had visually abnormal milk (clots, flakes, or watery secretion) or if udder swelling, heat, pain or redness were present and milk was not yet visually abnormal, but the California Mastitis Test (CMT) gave results of 2 or greater. A pre-treatment milk sample was obtained from each affected quarter(s) and cultured for the presence of organisms associated with mastitis; the culture data were not available prior to treatment assignments.
(§8) Cows were assigned in blocks of three to receive either 120 mg CSA-44 HCl, 200 mg cephapirin sodium, or no treatment. Enrollment was restricted to cows with one quarter affected with clinical mastitis.
(§9) CSA-44 (120 mg) or cephapirin sodium (200 mg) was administered as an intramammary infusion three times or two times, respectively, at a 24-hour interval beginning on the day of enrollment (Day 0). Cows assigned to the control group were left untreated. […]. Cows in their second or greater lactation, with an elevated somatic cell count (SCC) and either a positive milk culture for a mastitis pathogen or signs of clinical mastitis were assigned to one of three treatment groups. A quarter was considered cured if there were no clinical signs of mastitis, visibly normal milk, and a negative milk culture 11 days post-treatment. Using these criteria, cure rates for all mastitis cases were 28.0% (Control-0 mg), 63.0% (cephapirin sodium, 200 mg), and 75.0% (CSA-44, 120 mg).
Test data for combined gram positive and gram negative bacteria are set forth in Table 3 below and graphically illustrated in FIG. 2C.

gram positive bacteria = test: CSA-44/saline formulation study, intramammary treatment of clinical mastitis, gram positive; assay type: in vivo, lactating dairy cattle; conditions: CSA-44 120 mg x3 or cephapirin sodium 200 mg x2 intramammary, 11 days post-treatment
Procedure: as §4, §5, §6, §7, §8, §9
Test data for gram positive bacteria are set forth in Table 1 below and graphically illustrated in FIG. 2A.

gram negative bacteria = test: CSA-44/saline formulation study, intramammary treatment of clinical mastitis, gram negative; assay type: in vivo, lactating dairy cattle; conditions: CSA-44 120 mg x3 or cephapirin sodium 200 mg x2 intramammary, 11 days post-treatment
Procedure: as §4, §5, §6, §7, §8, §9
Test data for gram negative bacteria are set forth in Table 2 below and graphically illustrated in FIG. 2B.

[4] = Animal safety: udder irritation after intramammary infusion of CSA-44 sterile saline suspension; assay type: in vivo, lactating female Holstein dairy cattle; conditions: 120 mg
Procedure: The purpose of this example was to study the effects on dairy cows relative to udder irritation of intramammary infusion of a sterile formulation of CSA-44 containing either […] of CSA-44 per 10 mL plastet into both front quarters. More particularly, the study evaluated the safety of intramammary infusion of 120 mg, 150 mg and 200 mg CSA-44 hydrochloride sterile saline (0.9% NaCl) suspension, respectively, in each of two front quarters daily for three consecutive days with an approximate 24-hour interval between infusions.
Three lactating female Holstein dairy cattle ranging from 2 to 5 years of age and representing low milk producers (13.2 kg to 24.0 kg/day) and high milk producers (25.0 kg to 31.9 kg/day) were used in the study. Cows were enrolled based on the absence of mastitis pathogens, absence of clinical mastitis (normal strip cup and udder palpation), a somatic cell count (SCC) less than or equal to 200,000 per mL, and no edema or teat lesions.
Within each of the lactation/production subgroups (1st lactation high producers, 1st lactation low producers, ≧2nd lactation high producers, or ≧2nd lactation low producers), cows were assigned to receive either three doses of CSA-44 by intramammary infusion. There were no non-treated controls.
Following a 3-day pre-treatment clinical observation and milk sample collection period, animals received their assigned treatment. Measurements and observations continued during the treatment period and through Day 3 (60 hours) post treatment.
A CSA-44 sterile saline suspension (120 mg, 150 mg, or 200 mg) was administered as an intramammary infusion into both front quarters once at a 24-hour interval for three consecutive days. The following clinical and production measures were evaluated for a total of either 14 milkings: appearance of foremilk (strip cup evaluation), physical condition of udder, milk production, and general health.

[5] = Human food safety: total residue study of CSA-44 in bovine milk by HPLC with MS detection; assay type: in vivo, lactating Holstein cows; conditions: predicted; intramammary 120, 150 or 200 mg daily for three days
Text: The objective of this study was to validate a method for the determination of CSA-44 in bovine milk by HPLC with MS detection. The protocol has been designed to fulfill the requirements outlined in the FDA/CVM Guidance for Industry #208^1. ^1Guidance for Industry #208: Studies to Evaluate the Metabolism and Residue Kinetics of Veterinary Drugs in Food-Producing Animals: Validation of Analytical Methods used in Residue Depletion Studies. VICH GL49. U.S. Department of Health and Human Services, Food and Drug Administration, Center for Veterinary Medicine. Sep. 15, 2011
A GLP-compliant total residue study was conducted in 3 healthy, lactating Holstein cows. Cows tested were in the middle of their 2nd or 3rd lactation. The more specific objective was to evaluate the safety of intramammary infusion of 120, 150 and 200 mg dosages of CSA-44 hydrochloride sterile saline (0.9% NaCl) suspension, respectively, in each of two front quarters daily for three consecutive days with an approximate 24-hour interval between infusions.
Three lactating female Holstein dairy cattle ranging from 2 to 5 years of age and representing low milk producers (13.2 kg to 24.0 kg/day) and high milk producers (25.0 kg to 31.9 kg/day) were used in the study. […]

[6] = system: coagulase-negative staphylococci, Streptococcus dysgalactae, and Eshcherica coli; conditions: from Freedom Of Information Summary NADA 141-238, sterile suspension of ceftiofur hydrochloride; cited from earlier work
[7] = 150 mg or 200 mg in sterile saline, intramammary into both front quarters, once daily for three consecutive days

Structure (SMILES): CCCCCCCCOC(=O)CC[C@@H](C)[C@H]1CC[C@H]2[C@@H]3[C@H](OC(=O)CCN)C[C@@H]4C[C@H](OC(=O)CCN)CC[C@]4(C)[C@H]3C[C@H](OC(=O)CCN)[C@]12C [CSA-44]
- cure rate (Escherichia coli): 90%
- cure rate [1]: 87%
- cure rate [2]: 78%
- cure rate for all mastitis cases [3]: 75.0%
- % Cure [3]: 75%
- Cure (number) [3]: 45
- Not Cure (number) [3]: 15
- % Cure (gram positive bacteria): 70%
- Cure (number) (gram positive bacteria): 29
- Not Cure (number) (gram positive bacteria): 12
- % Cure (gram negative bacteria): 84%
- Cure (number) (gram negative bacteria): 16
- Not Cure (number) (gram negative bacteria): 3
- milk quality appearance and strip cup response during treatment [4, 7]: no change in milk quality
- udder physical condition scores, strip cup analyses, milk production (milk weight and percent milk fat) in response to treatment [4, 7]: no overall differences
- clinical safety and irritation of mammary tissue ([4]; sterile saline formulation, 150 mg or 200 mg per 10 mL dose, infused once daily for up to three consecutive days): clinically safe and not irritating to the mammary tissue
- time until CSA-44 is undetectable in milk [5]: 60 to 72 h
- time until residues in the milk are substantially depleted [5]: 24 to 48 h

Structure (SMILES): CO/N=C(\C(=O)N[C@@H]1C(=O)N2C(C(=O)O)=C(CSC(=O)c3ccco3)CS[C@H]12)c1csc(N)n1 [Ceftiofur HCl, ceftiofur hydrochloride]
- % Cure [6]: 70%
- Cure (number) [6]: 38
- Not Cure (number) [6]: 16

Structure (SMILES): CC(=O)OCC1=C(C(=O)O)N2C(=O)[C@@H](NC(=O)CSc3ccncc3)[C@H]2SC1 [Cephapirin Sodium, cephapirin sodium, reference compound]
- cure rate for all mastitis cases [3]: 63.0%
- % Cure [3]: 62%
- Cure (number) [3]: 32
- Not Cure (number) [3]: 20
- % Cure (gram positive bacteria): 62%
- Cure (number) (gram positive bacteria): 21
- Not Cure (number) (gram positive bacteria): 13
- % Cure (gram negative bacteria): 61%
- Cure (number) (gram negative bacteria): 11
- Not Cure (number) (gram negative bacteria): 7
